# Source: paper PMC9959553, “Promising Antifungal Molecules against Mucormycosis Agents Identified from Pandemic Response Box®: In Vitro and In Silico Analyses” (Journal of Fungi, 2023)
# Test system: R. oryzae UCP1295
# Assay: Screening of the Pandemic Response Box library at 5 µM
# Assay type: cell-based, Rhizopus oryzae
# Details: 48 h, Table S1, mean of the four values
# Protocol: Rhizopus oryzae UCP is the most prevalent Mucorales species in human infections and was used as a reference strain to screen the Pandemic Response Box® library. Screening was performed according to Rollin-Pinheiro and colleagues. Each compound was diluted in RPMI 1640 medium (Sigma Chemical Co., St. Louis, MO, USA), supplemented with 2% glucose and buffered with 3-(N-morpholino) propanesulfonic acid (MOPS) (Sigma Chemical Co., St. Louis, MO, USA) (0.165 mol/L, pH 7.2, from here on referred to as ‘supplemented RPMI’) to reach 5 μM in 96-well microtiter plates. Posaconazole (5 μM) and supplemented RPMI containing 1% DMSO were used as controls (both from Sigma Chemical Co., St. Louis, MO, USA). Conidia (2 × 10^5/mL) were added and incubated for 48 h at 37 °C in a 5% CO2 atmosphere. […] An inhibition of at least 60% was defined as the cut-off to select the promising drugs with antifungal activity against the Rhizopus species.
row,Structure (SMILES),"% of growth inhibition, Mean [%]"
1,CCCCCOc1ccc(/C=C2\Oc3c(ccc(O)c3O)C2=O)c(O)c1 [MMV1580851],-13.7
2,N[C@@H]1CN(c2c(F)cc3c(=O)c(C(=O)O)cn([C@@H]4C[C@@H]4F)c3c2Cl)CC12CC2 [MMV1579850],-4.9
3,O=C(c1cc(O)nc2ccccc12)N1CCN(c2ccccc2)CC1 [MMV596723],-7.3
4,Clc1cccc(-c2nnc(-c3ccccc3)o2)c1 [MMV141011],-16.6
5,c1cc(CN2CCCNCCNCCCNCC2)ccc1CN1CCCNCCNCCCNCC1 [MMV1580502],52.2
6,Nc1nc(=O)c(Br)c(-c2ccccc2)[nH]1 [MMV690540],-23.8
7,Cl.N=C(N)c1ccc(COc2ccc(Cl)cc2)cc1 [MMV1579844],-3.3
8,CC(=O)Nc1cc(NS(=O)(=O)c2ccc(Cl)cc2)cc2c(Cl)n[nH]c12 [MMV1579779],-33.3
9,COc1c(F)c(F)cc2c(=O)c(C(=O)O)cn(C3CC3)c12 [MMV1480967],-20.4
10,O=C(NNC(=S)Nc1ccc(Cl)cc1)c1ccncc1 [MMV1782227],-24.0
11,COc1ccc2cc3[n+](cc2c1OCCN(CCn1cncn1)Cc1ccc(F)cc1F)CCc1cc2c(cc1-3)OCO2 [MMV1593540],-0.6
12,O=C(Nc1ccc(F)cc1)c1nn(-c2ccccc2)c(=O)cc1Cl [MMV1578555],-18.6
13,COc1ccc(COc2cc3oc(=O)c4cc(C(C)O)ccc4c3cc2OC)cc1 (centres unmarked) [MMV1580799],-1.6
14,O=C(CSc1nnc(Br)n1-c1ccc(C2CC2)c2ccccc12)Nc1ccc(C(=O)O)cc1Cl [MMV1782213],-4.3
15,O=C(NCc1ccc2c3c(cccc13)C(=O)N2)c1cccs1 [MMV1341773],-28.3
16,CC(C)(C)c1cccc(-c2nc3cc(C(=N)N)ccc3[nH]2)c1O [MMV1581548],-15.8
17,Oc1cc(-c2cccc3ccccc23)[nH]n1 [MMV422940],-11.7
18,O=C(O)c1ccc(-c2ccc(O[C@H]3O[C@H](CO)[C@@H](O)[C@H](O)[C@@H]3O)cc2)cc1 [MMV1633970],-12.3
19,Cc1cc(O)c2c(c1)C(=O)c1c(I)c(O)c(I)c(O)c1C2=O [MMV1581545],-41.8
20,NC(=O)c1c(N)sc2c1CCCCC2 [MMV056052],-8.7
21,O=C(O)c1cc(-c2ccccc2)nc2ccccc12 [MMV018362],-11.4
22,CCC(C)(C)c1ccc(CC(C)CN2C[C@@H](C)O[C@@H](C)C2)cc1.Cl (some centres unmarked) [MMV1634358],-26.0
23,O=C(Nc1nnc(-c2ccc(Cl)cc2)o1)c1ccc(F)cc1 [MMV1782140],-4.1
24,O=C(Nc1[nH]c(=O)ncc1F)c1ccccc1 [MMV1782225],-27.6
25,Clc1cc2nc(C3CCNCC3)n(Cc3ccc(CNCCc4c[nH]cn4)cc3)c2cc1Cl [MMV1580842],0.4
26,O=[N+]([O-])c1cn2c(n1)OC[C@@H](OCc1ccc(OC(F)(F)F)cc1)C2 [MMV688755],1.3
27,NC[C@H]1OB(O)c2c(OCCCO)cccc21 [MMV1578566],-20.6

row,Structure (SMILES),"% of growth inhibition, Mean [%]"
1,CC(N)C12CC3CC(CC(C3)C1)C2 (centres unmarked) [MMV637855],3.7
2,Nc1nc2c(Cc3cccnc3)c[nH]c2c(=O)[nH]1 [MMV1782355],-12.7
3,COc1ccc(NS(=O)(=O)c2ccc(Cl)s2)cn1 [MMV1580499],-3.0
4,CCc1cc(O)c(Oc2ccc(C(N)=O)cc2F)cc1F [MMV1578564],-17.4
5,CCOCc1nc2c(N)nc3ccccc3c2n1CC(C)(C)O [MMV690547],-3.7
6,C=CCc1cc(Cc2cnc(N)nc2N)cc(OC)c1O [MMV1580849],-19.9
7,CCCCCCCCCN1C[C@@H](O)[C@H](O)[C@@H](O)[C@@H]1CO [MMV1593513],-2.2
8,CN(Cc1ccc(C(C)(C)C)cc1)Cc1cccc2ccccc12.Cl [MMV637104],-30.4
9,C[C@H](NC(=O)C(=O)Nc1ccccc1C(C)(C)C)C(=O)N[C@@H](CC(=O)O)C(=O)COc1c(F)c(F)cc(F)c1F [MMV1580794],1.8
10,O=C(Nc1ccc(Cl)c(C(F)(F)F)c1)C(CCCl)C(=O)Nc1ccc(Cl)c(C(F)(F)F)c1 [MMV1580840],-7.5
11,NC(N)=NCCCCC(=O)Nc1cc(C(F)(F)F)cc(NC(=O)c2cc(C(=O)Nc3cc(C(F)(F)F)cc(NC(=O)CCCCN=C(N)N)c3O[C@@H]3CCNC3)ncn2)c1O[C@@H]1CCNC1 [MMV1634402],-4.8
12,NC(=O)c1cnccn1 [MMV003249],-5.2
13,Cc1cccc(CC(=O)N[C@H]2CCOC2=O)c1 [MMV1579782],-2.1
14,CN(C)CCCOc1ccc(-c2ccc3ncc4c(c3c2)n(C2CCOCC2)c(=O)n4C)cn1 [MMV1580483],-5.4
15,CCOc1noc2cc(OCCC3CCN(c4ccc(C)nn4)CC3)ccc12 [MMV1634071],-15.0
16,Cl.Cl.NCCCc1ccccc1C(=O)Nc1ncc([N+](=O)O)s1 [MMV1579786],-16.7
17,COc1ccc2c(c1OC)C(=O)OC2C1c2c(cc3c(c2OC)OCO3)CCN1C (centres unmarked) [MMV002780],-7.9
18,COc1cc(Cc2cnc(N)nc2N)cc(OC)c1OC [MMV000028],-4.5
19,O=C1CCC(N2C(=O)c3ccccc3C2=O)C(=O)N1 (centres unmarked) [MMV002612],-21.8
20,CCCCc1ccc(S(=O)(=O)Nc2cc(C)on2)cc1 [MMV1782108],-13.7
21,CCn1cc(C(=O)O)c(=O)c2cc(F)c(N3CCNC(C)C3)c(F)c21.Cl (centres unmarked) [MMV002350],-4.3
22,Clc1cc(Cl)c2c(c1)CCc1ccccc1C2n1ccnc1 (centres unmarked) [MMV1634492],-30.6
23,CC(C)(C)NC(=O)N[C@H](C(=O)N1C[C@H]2[C@@H]([C@H]1C(=O)NC(CC1CCC1)C(=O)C(N)=O)C2(C)C)C(C)(C)C (some centres unmarked) [MMV1580497],-8.5
24,C[Si]1(C)CCN(Cc2cc(-c3ccc(Cl)cc3)n(-c3ccc(Cl)cc3)n2)CC1 [MMV1580843],-17.9
25,Nc1cc(-c2nc3ccccc3[nH]2)n[nH]c1=O [MMV975972],0.3
26,O=C(Nc1ccc(N2CCN(C(=O)c3ccccc3)CC2)cc1)c1ccc2c(c1)OCO2 [MMV1580505],-9.9
